pIC50, pKd: −log10 of the molar value.

Our source for the IC50 and Kd values is patent publication US20250059188A1, “ARYLSULPHONAMIDE COMPOUNDS” (Anaxis Pharma Pty Ltd, priority 2021, published 2025).

Experiment [1] concerns U937 cells. Description: Counter screen: U937 cell viability without TSQ cocktail (off-target effect). Details: species or system human. The settings on record: Homo sapiens, U-937, compound without TSQ cocktail, read-out: Off-target effect (IC50 cell-based assay). The method, boiled down:
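U937 cells (20,000/well) exposed to compound (10-point 1:3 titration from 36 μM, 0.3% DMSO) without TSQ cocktail for 48 h at 37 °C/5% CO2. Viability read as ATP by CellTiter-Glo luminescence; IC50 from 4-parameter logistic fit.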

Experiment [2] addresses human RIPK3 (Homo sapiens (Human), UniProt Q9Y572). The experiment can be described thus: KINOMEscan binding assay, human RIPK3. The note with it: equilibrium dissociation constant. The method, boiled down: (§1)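 Assay principle: test compound competes with immobilized bead ligand for kinase; kinase retained, then eluted, is counted by qPCR. Conditions were 1% DMSO final with 11 compound concentrations in 3-fold steps, 30,000 nM top for most. The Hill equation with slope −1 gave Kd.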

In experiment [3] the target is human RIPK1 (Homo sapiens (Human), UniProt Q13546). Description: KINOMEscan binding assay, human RIPK1. The settings on record: equilibrium dissociation constant. In outline:
as §1

The target in experiment [4] is human MLKL (full length) (Homo sapiens (Human), UniProt Q8NB16). The experiment can be described thus: KINOMEscan binding assay, human MLKL (full length). The note with it: equilibrium dissociation constant. The method, boiled down: as §1
Chain of human MLKL (full length) (Q8NB16 whole entry): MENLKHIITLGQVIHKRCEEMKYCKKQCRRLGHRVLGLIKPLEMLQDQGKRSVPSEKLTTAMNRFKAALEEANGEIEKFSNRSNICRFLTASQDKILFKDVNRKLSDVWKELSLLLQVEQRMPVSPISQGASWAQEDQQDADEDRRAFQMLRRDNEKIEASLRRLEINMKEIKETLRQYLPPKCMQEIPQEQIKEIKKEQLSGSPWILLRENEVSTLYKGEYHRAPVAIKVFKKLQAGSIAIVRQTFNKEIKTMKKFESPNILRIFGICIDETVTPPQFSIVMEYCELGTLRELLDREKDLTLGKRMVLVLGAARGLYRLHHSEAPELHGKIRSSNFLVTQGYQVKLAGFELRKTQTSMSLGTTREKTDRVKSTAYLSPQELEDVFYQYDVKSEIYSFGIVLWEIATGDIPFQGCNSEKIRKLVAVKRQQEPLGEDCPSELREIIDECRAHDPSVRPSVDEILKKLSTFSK
Experiment [5] relates to U937 human histiocytic leukemia cell line. Description: Inhibition of TSQ induced necroptosis in U937 cells (CellTitre-Glo). The note with it: Homo sapiens, U-937, TSQ cocktail (TNF, Smac mimetic, Q-VD-OPh), 48 hours, read-out: Inhibition of TSQ-induced necroptosis (IC50 cell-based assay). The method, boiled down:
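U937 cells (20000/well) treated with compound (10-point, 1:3 from 36 μM, 0.3% DMSO) plus TSQ cocktail (hTNF-Fc 100 ng/ml, Smac mimetic 500 nM, Q-VD-OPh 10 μM), 48 h at 37 °C. Viability by CellTiter-Glo luminescence; IC50 from 4-parameter logistic fit. Counter screen: same cells without TSQ.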

Chain of human RIPK1 (Q13546 whole entry): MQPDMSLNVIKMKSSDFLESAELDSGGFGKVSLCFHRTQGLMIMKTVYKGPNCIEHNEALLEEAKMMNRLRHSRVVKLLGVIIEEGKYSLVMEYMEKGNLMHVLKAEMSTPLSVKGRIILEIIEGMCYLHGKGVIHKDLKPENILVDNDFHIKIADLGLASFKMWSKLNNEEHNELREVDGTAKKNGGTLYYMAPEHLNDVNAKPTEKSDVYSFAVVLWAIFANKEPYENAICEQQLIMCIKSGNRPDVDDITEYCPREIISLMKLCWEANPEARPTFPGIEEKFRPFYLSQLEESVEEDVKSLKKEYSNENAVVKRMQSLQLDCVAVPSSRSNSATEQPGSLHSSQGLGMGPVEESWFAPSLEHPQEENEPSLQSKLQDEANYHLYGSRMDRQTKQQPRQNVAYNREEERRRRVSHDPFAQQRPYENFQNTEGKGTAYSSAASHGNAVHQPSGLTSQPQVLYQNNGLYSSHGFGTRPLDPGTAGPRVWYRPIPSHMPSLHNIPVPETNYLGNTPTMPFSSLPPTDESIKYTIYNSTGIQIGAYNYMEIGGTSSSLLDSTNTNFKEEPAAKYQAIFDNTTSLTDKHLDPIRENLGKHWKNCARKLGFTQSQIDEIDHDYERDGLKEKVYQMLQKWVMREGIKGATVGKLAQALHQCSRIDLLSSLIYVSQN
Chain of human RIPK3 (Q9Y572 whole entry): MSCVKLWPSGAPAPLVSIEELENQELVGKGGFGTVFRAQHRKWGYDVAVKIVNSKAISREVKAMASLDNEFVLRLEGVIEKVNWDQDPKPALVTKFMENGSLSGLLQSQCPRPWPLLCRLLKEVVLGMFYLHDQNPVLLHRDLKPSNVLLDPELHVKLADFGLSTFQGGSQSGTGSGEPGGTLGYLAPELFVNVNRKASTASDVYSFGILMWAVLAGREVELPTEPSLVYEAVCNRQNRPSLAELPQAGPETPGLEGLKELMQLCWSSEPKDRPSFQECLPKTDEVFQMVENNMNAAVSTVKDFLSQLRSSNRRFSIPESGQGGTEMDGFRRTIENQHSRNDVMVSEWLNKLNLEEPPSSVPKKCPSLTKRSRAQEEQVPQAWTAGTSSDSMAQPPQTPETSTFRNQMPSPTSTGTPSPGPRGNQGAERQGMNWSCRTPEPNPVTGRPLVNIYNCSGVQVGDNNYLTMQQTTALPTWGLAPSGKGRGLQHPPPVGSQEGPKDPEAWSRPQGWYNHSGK

As for `Cn1nc(-c2ccc(NS(=O)(=O)C(F)F)c(OCc3ccc(F)cc3)c2)c2c(N)ncc(-c3cnn(C4CCOCC4)c3)c21` [Compound 13, N-(4-(4-amino-1-methyl-7-(1-(tetrahydro-2H-pyran-4-yl)-1H-pyrazol-4-yl)-1H-pyrazolo[4,3-c]pyridin-3-yl)-2-((4-fluorobenzyl)oxy)phenyl)-1,1-difluoromethanesulfonamide], the values for the pIC50 in experiment [1] and in experiment [5] were below 5.00 and 6.00 to 8.00, respectively. In addition, the pKd – broadly, −log10 of the Kd, conventionally taken in molar units – is below 5.00 in experiment [2], below 5.00 in experiment [3] and above 9.00 in experiment [4].

With `COCC(Oc1cc(-c2nn(C)c3c(-c4cnn(C5CCN(C)CC5)c4)cnc(N)c23)ccc1NS(=O)(=O)C(F)F)c1ccc(F)cc1` (stereo not drawn) [Compound 139, N-(4-(4-amino-1-methyl-7-(1-(1-methylpiperidin-4-yl)-1H-pyrazol-4-yl)-1H-pyrazolo[4,3-c]pyridin-3-yl)-2-(1-(4-fluorophenyl)-2-methoxyethoxy)phenyl)-1,1-difluoromethanesulfonamide], the pIC50 – broadly, −log10 of the IC50, conventionally taken in molar units – in experiment [1] was below 5.00; in experiment [5], 6.00 to 8.00. Moreover, the figures for the negative-log Kd (pKd) in experiment [2], in experiment [3] and in experiment [4] were below 5.00, below 5.00 and 7.00 to 9.00, respectively.

In the case of `C[C@H](Oc1cc(-c2nn(C)c3c(-c4cnn(C5(CC#N)COC5)c4)cnc(N)c23)ccc1NS(=O)(=O)C(F)F)c1ccc(F)cc1` [Compound 98, (S)-N-(4-(4-amino-7-(1-(3-(cyanomethyl)oxetan-3-yl)-1H-pyrazol-4-yl)-1-methyl-1H-pyrazolo[4,3-c]pyridin-3-yl)-2-(1-(4-fluorophenyl)ethoxy)phenyl)-1,1-difluoromethanesulfonamide], the pIC50 in experiment [1] was below 5.00; in experiment [5], 6.00 to 8.00. For the same compound, the pKd in experiment [2] was below 5.00; in experiment [3], below 5.00; in experiment [4], above 9.00.

In the case of `C[C@H](Oc1cc(-c2nn(C)c3c(-c4cnn(C5CC6(C5)CN(C)C6)c4)cnc(N)c23)ccc1NS(=O)(=O)C(F)F)c1ccc(F)cc1` [Compound 99, (S)-N-(4-(4-amino-1-methyl-7-(1-(2-methyl-2-azaspiro[3.3]heptan-6-yl)-1H-pyrazol-4-yl)-1H-pyrazolo[4,3-c]pyridin-3-yl)-2-(1-(4-fluorophenyl)ethoxy)phenyl)-1,1-difluoromethanesulfonamide], the negative logarithm of the IC50 (pIC50) in experiment [1] was below 5.00; in experiment [5], 6.00 to 8.00. Besides, the values for the pKd in experiment [2], in experiment [3] and in experiment [4] were below 5.00, below 5.00 and above 9.00, respectively.

For `COCCn1cc(-c2cnc(N)c3c(-c4ccc(NS(=O)(=O)C(F)F)c(O[C@@H](C)c5ccc(F)cc5)c4)nn(C)c23)cn1` [Compound 29, (S)-N-(4-(4-amino-7-(1-(2-methoxyethyl)-1H-pyrazol-4-yl)-1-methyl-1H-pyrazolo[4,3-c]pyridin-3-yl)-2-(1-(4-fluorophenyl)ethoxy)phenyl)-1,1-difluoromethanesulfonamide], the negative logarithm of the IC50 (pIC50) in experiment [1] is below 5.00; in experiment [5], above 8.00. Also, the pKd in experiment [2] was below 5.00; in experiment [3], below 5.00; in experiment [4] it was above 9.00.

Regarding `C[C@H](Oc1cc(-c2nn(C)c3c(-c4cnn(C5CCN(C)C(C)(C)C5)c4)cnc(N)c23)ccc1NS(=O)(=O)C(F)F)c1ccc(F)cc1` (single isomer, unassigned) [Compound 113], the pIC50 in experiment [1] was below 5.00; in experiment [5] it was above 8.00. Also, the pKd was below 5.00 in experiment [2], below 5.00 in experiment [3] and above 9.00 in experiment [4].

With `C[C@H](Oc1cc(-c2nn(C)c3c(-c4cnn(C5CCC(C)(C)N(C)C5)c4)cnc(N)c23)ccc1NS(=O)(=O)C(F)F)c1ccc(F)cc1` (stereo partly drawn) [Compound 104, N-(4-{4-amino-1-methyl-7-[1-(1,6,6-trimethylpiperidin-3-yl)-1H-pyrazol-4-yl]-1H-pyrazolo[4,3-c]pyridin-3-yl}-2-[(1 S)-1-(4-fluorophenyl)ethoxy]phenyl)-1,1-difluoromethanesulfonamide], the pIC50 in experiment [1] was below 5.00; in experiment [5], above 8.00. The pKd is below 5.00 in experiment [2], below 5.00 in experiment [3] and above 9.00 in experiment [4].

For `CC1CN(C)CC(C)C1n1cc(-c2cnc(N)c3c(-c4ccc(NS(=O)(=O)C(F)F)c(O[C@@H](C)c5ccc(F)cc5)c4)nn(C)c23)cn1` (stereo partly drawn) [Compound 172, N-(4-{4-amino-1-methyl-7-[1-(1,3,5-trimethylpiperidin-4-yl)-1H-pyrazol-4-yl]-1H-pyrazolo[4,3-c]pyridin-3-yl}-2-[(1S)-1-(4-fluorophenyl)ethoxy]phenyl)-1,1-difluoromethanesulfonamide], the pIC50 was below 5.00 in experiment [1] and 6.00 to 8.00 in experiment [5]. Moreover, the pKd in experiment [2] was below 5.00; in experiment [3], below 5.00; in experiment [4] it was 7.00 to 9.00.

For the compound `C[C@H](Oc1cc(-c2nn(C)c3c(-c4cnn(C5CCN(CC(F)(F)F)C(C)(C)C5)c4)cnc(N)c23)ccc1NS(=O)(=O)C(F)F)c1ccc(F)cc1` (stereo partly drawn) [Compound 167, N-(4-(4-amino-7-(1-(2,2-dimethyl-1-(2,2,2-trifluoroethyl)piperidin-4-yl)-1H-pyrazol-4-yl)-1-methyl-1H-pyrazolo[4,3-c]pyridin-3-yl)-2-((S)-1-(4-fluorophenyl)ethoxy)phenyl)-1,1-difluoromethanesulfonamide], the values for the pIC50 in experiment [1] and in experiment [5] were 5.00 to 6.00 and 6.00 to 8.00, respectively. Further, the pKd is below 5.00 in experiment [2], below 5.00 in experiment [3] and 7.00 to 9.00 in experiment [4].

Regarding `C[C@H](Oc1cc(-c2nn(C)c3c(-c4cnn(C5CCN(C)C(C)(C)C5)c4)cnc(N)c23)ccc1NS(=O)(=O)C(F)F)c1ccc(Cl)cc1` (stereo partly drawn) [Compound 159, N-(4-(4-amino-1-methyl-7-(1-(1,2,2-trimethylpiperidin-4-yl)-1H-pyrazol-4-yl)-1H-pyrazolo[4,3-c]pyridin-3-yl)-2-((S)-1-(4-chlorophenyl)ethoxy)phenyl)-1,1-difluoromethanesulfonamide], the figures for the pIC50 in experiment [1] and in experiment [5] were below 5.00 and above 8.00, respectively. In addition, the results for the pKd in experiment [2], in experiment [3] and in experiment [4] were below 5.00, below 5.00 and above 9.00, respectively.

With `C[C@H](Oc1cc(-c2nn(C)c3c(-c4cnn(CCC(F)(F)F)c4)cnc(N)c23)ccc1NS(=O)(=O)C(F)F)c1ccc(F)cc1` [Compound 131, (S)-N-(4-(4-amino-1-methyl-7-(1-(3,3,3-trifluoropropyl)-1H-pyrazol-4-yl)-1H-pyrazolo[4,3-c]pyridin-3-yl)-2-(1-(4-fluorophenyl)ethoxy)phenyl)-1,1-difluoromethanesulfonamide], the negative-log IC50 (pIC50) in experiment [1] is below 5.00; in experiment [5], 6.00 to 8.00. Further, the pKd is below 5.00 in experiment [2], below 5.00 in experiment [3] and 7.00 to 9.00 in experiment [4].

In the case of `C[C@H](Oc1cc(-c2nn(C)c3c(-c4cnn(C5CC(C)(C)N(C)C(C)(C)C5)c4)cnc(N)c23)ccc1NS(=O)(=O)C(F)F)c1ccc(F)cc1` [Compound 162, (S)-N-(4-(4-amino-1-methyl-7-(1-(1,2,2,6,6-pentamethylpiperidin-4-yl)-1H-pyrazol-4-yl)-1H-pyrazolo[4,3-c]pyridin-3-yl)-2-(1-(4-fluorophenyl)ethoxy)phenyl)-1,1-difluoromethanesulfonamide], the pIC50 was below 5.00 in experiment [1] and above 8.00 in experiment [5]. Besides, the values for the pKd in experiment [2], in experiment [3] and in experiment [4] were below 5.00, below 5.00 and above 9.00, respectively.
